One series can be described thus: in vivo. The note with it: male, C57BL/6J, mouse, ip.
For series [1], the system named is male C57BL/6J mice. The series can be described thus: animal or person. It is filed as in vivo. The conditions noted are these: Mus musculus, ip, 1 h, read-out: ED50 (95% confidence intervals) Hot Plate.
Series [2] has as its system male C57BL/6J mice. The series can be described thus: animal or person. The conditions noted are these: Mus musculus, ip, 1 h, read-out: ED50 (95% confidence intervals) Tail Flick. The format is in vivo.
A further series concerns MOR. The note with it: operational model; ref DeWire et al., 2013; cited from earlier work.

These results are taken from publication PMC5731250 (Cell, 2017).

Each structure is given as a SMILES string. Read-outs that look alike come from different tables or passages of the source.

As for `CN1CC[C@]23c4c5ccc(O)c4O[C@H]2[C@@H](O)C=C[C@H]3[C@H]1C5` [Morphine], the median effective dose (ED50) in the series “in vivo” came to 33 mg/kg; in the series “in vivo” (ED50 (95% confidence intervals) %O2 Saturation), 79 mg/kg; in the series on male C57BL/6J mice [1], 5.9 mg/kg; in the series on male C57BL/6J mice [2], 3.8 mg/kg.

As to `COc1ccsc1CNCC[C@@]1(c2ccccn2)CCOC2(CCCC2)C1` [TRV-130], the “bias factor (G protein signaling over βarrestin pathway)” value in the series on MOR is on record as 3.

The term ED50 denotes the midpoint of the dose-response relation.
